Experimental data published in patent US20100041760A1, “MONOARYL AMINOTETRALINES” (priority 2008, published 2010).

Assays:
human CRTH2 = target: T1, human CRTH2 (Homo sapiens, UniProt Q9Y5Y4); experiment: Human CRTH2 Receptor Binding Assay (whole cell, [3H]ramatroban competition); set-up: expressed in transfected cells; host or cells: CHO-K1 (co-transfected with G-alpha16); details: CHO-K1 cells expressing human CRTH2 and G-alpha16; 20 nM [3H]ramatroban; 1 hour, room temperature
T1 sequence (Q9Y5Y4 1-395): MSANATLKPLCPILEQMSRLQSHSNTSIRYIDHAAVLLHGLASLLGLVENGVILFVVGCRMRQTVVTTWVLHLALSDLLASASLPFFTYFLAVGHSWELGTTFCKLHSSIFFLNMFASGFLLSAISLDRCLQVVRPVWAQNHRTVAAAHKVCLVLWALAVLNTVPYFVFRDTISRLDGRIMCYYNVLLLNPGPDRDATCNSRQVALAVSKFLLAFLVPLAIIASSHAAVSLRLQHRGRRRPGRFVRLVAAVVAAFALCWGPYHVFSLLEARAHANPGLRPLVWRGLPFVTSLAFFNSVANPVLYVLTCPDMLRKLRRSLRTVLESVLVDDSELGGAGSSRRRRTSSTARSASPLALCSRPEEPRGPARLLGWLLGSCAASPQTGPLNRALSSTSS
Text: A whole cell receptor binding assay using [^3H]ramatroban as the competing radioactive ligand was employed to evaluate the compound binding activity to human CRTH2. The radioactive ligand [^3H]ramatroban was synthesized according to Sugimoto et. al. (Eur. J. Pharmacol. 524, 30-37, 2005) to a specific activity of 42 Ci/mmol.
A cell line stably expressing human CRTH2 was established by transfecting CHO-K1 cells with two mammalian expression vectors that harbored human CRTH2 and G-alpha16 cDNAs, respectively, using FuGene® 6 transfection reagent (from Roche). Stable clones expressing CRTH2 were selected by staining each clone with BM16 (BD Pharmingen™ from BD Biosciences, a division of Becton, Dickinson and Company), which is a rat monoclonal antibody to human CRTH2. The cells were maintained as monolayer cultures in Ham's F-12 medium containing 10% fetal bovine serum, 100 units/mL penicillin, 100 μg/mL streptomycin, 2 mM glutamine, 0.5 mg/mL G418 (geneticin) for CRTH2, and 0.2 mg/mL hygromycin-B (for G-alpha 16). For whole cell receptor binding assay, the monolayer cells were rinsed once with PBS (phosphate buffered saline), dissociated using ethylenediaminetetraacetate (Versene™ EDTA from Lonza Inc.), and suspended in PBS containing 10 mM MgCl2 and 0.06% BSA (bovine serum albumin) at 1.5×10^6 cells/mL.
The binding reactions (0.2 mL) were performed in 96-well plates at room temperature in PBS containing 1.5×10^5 cells, 10 mM MgCl2, 0.06% BSA, 20 nM [^3H]ramatroban, and test compound at various concentrations. After 1 hour of binding reactions, the cells were harvested on GF™/B filter microplates (microtiter plates with embedded glass fiber from PerkinElmer, Inc.) and washed 5 times with PBS using a Filtermate™ Harvester (a cell harvester that harvests and washes cells from microplates from PerkinElmer, Inc.). The radioactivities bound to the cells were determined using a microplate scintillation counter (TopCount® NXT, from PerkinElmer, Inc.) after adding 50 μL of Microscint™ 20 scintillation fluid (from PerkinElmer, Inc.) to each well of the filter plates. The radioactivity from non-specific binding was determined by replacing compound with 10 μM of 15(R)-15-methyl PGD2 (from Cayman Chemical Company) in the reaction mixtures. The radioactivity bound to the cells in the absence of compound (total binding) was determined by replacing compound with 0.25% of DMSO (dimethyl sulfoxide) in the reaction mixture. Specific binding data were obtained by subtracting the radioactivity of non-specific binding from each binding data.
(§1) The IC50 value is defined as the concentration of the tested compound that is required for 50% inhibition of total specific binding. In order to calculate the IC50 value, the percent inhibition data were determined for 7 concentrations for each compound. The percent inhibition for a compound at each concentration was calculated according to the following formula, [1−(specific binding in the presence of compound)/(total specific binding)]×100. The IC50 value was then obtained by fitting the percent inhibition data to a sigmoidal dose-response (4 parameter logistic) model in the XLfit® software Excel add-in program [from ID Business Solutions Ltd., model 205, where F(x)=(A+(B−A)/(1+((C/x)̂D)))].

[1] = target: T2, thromboxane A2 receptor (TP) (Homo sapiens, UniProt P21731); experiment: Human Thromboxane A2 Receptor Binding Assay; details: human platelets; 10 nM [3H]SQ29548; 1 hour, room temperature
T2 construct: using human platelets as the source of the receptor; from tissue; host or cells: human platelets (whole platelets, 5x10^7 per well)
T2 sequence (P21731 1-343): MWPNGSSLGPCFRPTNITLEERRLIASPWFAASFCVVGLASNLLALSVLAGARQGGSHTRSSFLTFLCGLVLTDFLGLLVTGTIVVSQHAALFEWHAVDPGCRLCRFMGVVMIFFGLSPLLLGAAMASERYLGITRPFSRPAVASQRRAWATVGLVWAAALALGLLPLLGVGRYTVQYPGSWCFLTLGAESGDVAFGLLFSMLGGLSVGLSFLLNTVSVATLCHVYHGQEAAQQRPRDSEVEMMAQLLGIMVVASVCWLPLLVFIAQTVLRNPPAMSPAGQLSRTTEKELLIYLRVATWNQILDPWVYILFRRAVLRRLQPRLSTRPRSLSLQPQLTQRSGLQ
Text: The thromboxane A2 receptor (TP) plays a key role in hemostasis as its abnormality leads to bleeding disorders. To avoid the potential liability of bleeding disorders, the binding activity of certain compounds of the present invention against TP was monitored by a receptor binding assay using human platelets as the source of the receptor and [^3H]SQ29548 (generically named (5Z)-[5,6-^3H]-7-[(1S,2R,3R,4R)-3-[[2-[(phenylamino)carbonyl]hydrazinyl]methyl]-7-oxabicyclo[2.2.1]hept-2-yl]-5-heptenoic acid, from PerkinElmer Inc.) as the competing radioactive ligand.
The TP binding reactions (0.2 mL) were performed in 96-well plates at room temperature in PBS containing 5×10^7 platelets, 10 mM MgCl2, 0.06% BSA, 10 nM [^3H]SQ29548, and the test compound at various concentrations. After 1 hour of binding reactions, the platelets were harvested on GF/B filter plates (as previously described from PerkinElmer Inc.) and washed 5 times with PBS using a Filtermate™ Harvester (as previously described from PerkinElmer Inc.). The radioactivities bound to the platelets were determined using a microplate scintillation counter (TopCount® NXT, from PerkinElmer Inc.) after adding 50 μL of Microscint™ 20 scintillation fluid (from PerkinElmer Inc.) to each well of the filter plates. The radioactivity from non-specific binding was determined by replacing the compound with 10 μM of ramatroban (BAY-u3405, from Cayman Chemical Company) in the reaction mixtures. The radioactivity bound to the platelets in the absence of compound (total binding) was determined by replacing the compound with 0.25% of DMSO in the reaction mixture. Specific binding data were obtained by subtracting the radioactivity of non-specific binding from each binding data.
as §1

SMILES | IC50 (human CRTH2) [nM] | IC50 [1] [nM]
CN([C@@H]1CCCc2c(OCC(=O)O)cccc21)S(=O)(=O)c1cc(C(C)(C)C)cc(C(C)(C)C)c1 [Example 1-2, {(R)-5-[(3,5-di-tert-butyl-benzenesulfonyl)-methyl-amino]-5,6,7,8-tetrahydro-naphthalen-1-yloxy}-acetic acid] | 177 | > 10000
CN([C@@H]1CCCc2c(OCC(=O)O)cccc21)S(=O)(=O)c1cc(S(C)(=O)=O)cc(S(C)(=O)=O)c1 [Example 1-3, {(R)-5-[(3,5-bis-methanesulfonyl-benzenesulfonyl)-methyl-amino]-5,6,7,8-tetrahydro-naphthalen-1-yloxy}-acetic acid] | 15.7 | > 10000
COc1cc(C(F)(F)F)cc(S(=O)(=O)N(C)[C@@H]2CCCc3c(OCC(=O)O)cccc32)c1 [Example 1-4, {(R)-5-[(3-methoxy-5-trifluoromethyl-benzenesulfonyl)-methyl-amino]-5,6,7,8-tetrahydro-naphthalen-1-yloxy}-acetic acid] | 110 | > 10000
CN([C@@H]1CCCc2c(OCC(=O)O)cccc21)S(=O)(=O)c1cc(Br)cc(C(F)(F)F)c1 [Example 1-5, {(R)-5-[(3-bromo-5-trifluoromethyl-benzenesulfonyl)-methyl-amino]-5,6,7,8-tetrahydro-naphthalen-1-yloxy}-acetic acid] | 74.2 | > 10000
CN([C@@H]1CCCc2c(OCC(=O)O)cccc21)S(=O)(=O)c1cc(C(F)(F)F)cc(C(F)(F)F)c1 [Example 1-6, {(R)-5-[(3,5-bis-trifluoromethyl-benzenesulfonyl)-methyl-amino]-5,6,7,8-tetrahydro-naphthalen-1-yloxy}-acetic acid] | 18.3 | > 10000
CC(C)[S+]([O-])c1cc(C(F)(F)F)cc(S(=O)(=O)N(C)[C@@H]2CCCc3c(OCC(=O)O)cccc32)c1 (stereo partly drawn) [Example 2-1, ((R)-5-{methyl-[3-(propane-2-sulfinyl)-5-trifluoromethyl-benzenesulfonyl]-amino}-5,6,7,8-tetrahydro-naphthalen-1-yloxy)-acetic acid] | 6.8 | > 10000
CN([C@@H]1CCCc2c(OCC(=O)O)cccc21)S(=O)(=O)c1cc(C(F)(F)F)cc(S(=O)(=O)C2CCCC2)c1 [Example 3-1, {(R)-5-[(3-cyclopentanesulfonyl-5-trifluoromethyl-benzenesulfonyl)-methyl-amino]-5,6,7,8-tetrahydro-naphthalen-1-yloxy}-acetic acid] | 2.9 | > 10000
CC(C)S(=O)(=O)c1cc(C(F)(F)F)cc(S(=O)(=O)N(C)[C@@H]2CCCc3c(OCC(=O)O)cccc32)c1 [Example 3-2, ((R)-5-{methyl-[3-(propane-2-sulfonyl)-5-trifluoromethyl-benzenesulfonyl]-amino}-5,6,7,8-tetrahydro-naphthalen-1-yloxy)-acetic acid] | 3.6 | > 10000

Second part, the compound after the results:

IC50 (human CRTH2) [nM] | IC50 [1] [nM] | SMILES
3.4 | > 10000 | CN([C@@H]1CCCc2c(OCC(=O)O)cccc21)S(=O)(=O)c1cc(C(F)(F)F)cc(S(=O)(=O)C(C)(C)C)c1 [Example 3-3, ((R)-5-{methyl-[3-(2-methyl-propane-2-sulfonyl)-5-trifluoromethyl-benzenesulfonyl]-amino}-5,6,7,8-tetrahydro-naphthalen-1-yloxy)-acetic acid]
127 | > 10000 | CN([C@@H]1CCCc2c(OCC(=O)O)cccc21)S(=O)(=O)c1cc(N2CCCC2)cc(C(F)(F)F)c1 [Example 4-1, {(R)-5-[methyl-(3-pyrrolidin-1-yl-5-trifluoromethyl-benzenesulfonyl)-amino]-5,6,7,8-tetrahydro-naphthalen-1-yloxy}-acetic acid]
410 | > 10000 | CC(C)N(C)c1cc(C(F)(F)F)cc(S(=O)(=O)N(C)[C@@H]2CCCc3c(OCC(=O)O)cccc32)c1 [Example 4-3, ((R)-5-{[3-(isopropyl-methyl-amino)-5-trifluoromethyl-benzenesulfonyl]-methyl-amino}-5,6,7,8-tetrahydro-naphthalen-1-yloxy)-acetic acid]
16.5 | > 10000 | CN([C@@H]1CCCc2c(OCC(=O)O)cccc21)S(=O)(=O)c1cc(C(C)(F)F)cc(C(F)(F)F)c1 [Example 5-1, ((R)-5-{[3-(1,1-difluoro-ethyl)-5-trifluoromethyl-benzenesulfonyl]-methyl-amino}-5,6,7,8-tetrahydro-naphthalen-1-yloxy)-acetic acid]
78.2 | > 10000 | CC(=O)c1cc(C(F)(F)F)cc(S(=O)(=O)N(C)[C@@H]2CCCc3c(OCC(=O)O)cccc32)c1 [Example 6-1, {(R)-5-[(3-acetyl-5-trifluoromethyl-benzenesulfonyl)-methyl-amino]-5,6,7,8-tetrahydro-naphthalen-1-yloxy}-acetic acid]
76.6 | > 10000 | CN([C@@H]1CCCc2c(OCC(=O)O)cccc21)S(=O)(=O)c1cc(C(F)(F)F)cc(C2(C)CC2)c1 [Example 7-1, ((R)-5-{methyl-[3-(1-methyl-cyclopropyl)-5-trifluoromethyl-benzenesulfonyl]-amino}-5,6,7,8-tetrahydro-naphthalen-1-yloxy)-acetic acid]
91.2 | > 10000 | CC(C)c1cc(C(F)(F)F)cc(S(=O)(=O)N(C)[C@@H]2CCCc3c(OCC(=O)O)cccc32)c1 [Example 8-1, {(R)-5-[(3-isopropyl-5-trifluoromethyl-benzenesulfonyl)-methyl-amino]-5,6,7,8-tetrahydro-naphthalen-1-yloxy}-acetic acid]
